{"source": "patent US7943603B2", "about": "“Medical uses of a selective estrogen receptor modulator in combination with sex steroid precursors” (Endorecherche, Inc., priority 1998, dated 2011)", "key": {"[1]": {"test_system": "human ZR-75-1 breast tumor xenografts", "assay": "Growth of human ZR-75-1 breast tumor xenografts in OVX nude mice supplemented with estrone", "conditions": "OVX+E1 0.5 μg nude mice, 9.5 months; for average tumor weight: E1 control 1.12±0.26"}, "[2]": {"test_system": "rat", "assay": "Urine and serum biochemical parameters of bone metabolism", "format": "in vivo", "conditions": "DHEA 10 mg percutaneously, EM-800 75 μg orally, once daily, alone or in combination, 9 months", "source_text": "The animals were randomly divided into groups each containing 20 rats with the exception of 40 animals in the control group. […] Treatment was initiated 3 days before the oral administration of DMBA. EM-800 was synthesized in the Medicinal Chemistry Division of our laboratory while DHEA was purchased from Steraloids Inc., Wilton, N.H.\nTwenty-four-hour urinary samples were collected at the end of the experiment from the first 9 rats of each group following transfer in metabolic cages (Allentown Caging Equipment Co., Allentown, N.J.). Two urinary samples were collected and analyzed on different days for each animal in order to minimize the influence of daily variation. Therefore, each value shown represents the mean of the two measurements performed on two different days. 0.5 ml of toluene was added into the urine collecting tubes to prevent urine evaporation and bacterial growth and the urinary volume was recorded. Trunk blood was collected at sacrifice and was allowed to clot at 4° C. overnight before centrifugation at 3000 rpm for 30 min.\nFresh samples were used for the assay of urinary creatinine, calcium, and phosphorus as well as serum total alkaline phosphatase (tALP) activity, cholesterol and triglycerides. These biochemical parameters were measured automatically with a Monarch 2000 Chemistry System (Instrumentation Laboratory Co. Lexington, Mass.) under Good Laboratory Practice conditions. Urinary hydroxyproline was measured as described (Podenphant et al., Clinica Chimica Acta 142: 145-148, 1984)."}}, "note": "Values joined by “and” are separate entries in the source; they are usually repeats but may differ in a detail not shown here. Identical values can stand only once. “Also recorded” adds a separate entry of the source.", "data": [{"smiles": "CC1=C(c2ccc(OC(=O)C(C)(C)C)cc2)[C@H](c2ccc(OCCN3CCCCC3)cc2)Oc2cc(OC(=O)C(C)(C)C)ccc21", "note": "[EM-800, (+)-7-pivaloyloxy-3-(4′-pivaloyloxyphenyl)-4-methyl-2-(4″-(2′″-piperidinoethoxy)phenyl)-2H-benzopyran]", "values": [{"measurement": "Complete response, (%)", "setting": "[1]; EM-800 15 μg orally daily", "result": 29.4, "unit": "%"}, {"measurement": "Complete response, number", "setting": "[1]; EM-800 15 μg orally daily", "result": 5}, {"measurement": "Partial response, (%)", "setting": "[1]; EM-800 15 μg orally daily", "result": 5.9, "unit": "%"}, {"measurement": "Partial response, number", "setting": "[1]; EM-800 15 μg orally daily", "result": 1}, {"measurement": "Progression, (%)", "setting": "[1]; EM-800 15 μg orally daily", "result": 35.3, "unit": "%"}, {"measurement": "Progression, number", "setting": "[1]; EM-800 15 μg orally daily", "result": 6}, {"measurement": "Stable response, (%)", "setting": "[1]; EM-800 15 μg orally daily", "result": 29.4, "unit": "%"}, {"measurement": "Stable response, number", "setting": "[1]; EM-800 15 μg orally daily", "result": 5}, {"measurement": "inhibition of estrogen-stimulated ZR-75-1 tumor size", "setting": "[1]; EM-800 15 μg orally daily", "result": "88% and 87.5%"}, {"measurement": "average tumor weight", "setting": "[1]; EM-800 15 μg orally daily", "result": "0.08 ± 0.03", "unit": "g"}, {"measurement": "Complete response, (%)", "setting": "[1]; EM-800 50 μg orally daily", "result": 25.0, "unit": "%"}, {"measurement": "Complete response, number", "setting": "[1]; EM-800 50 μg orally daily", "result": 4}, {"measurement": "Partial response, (%)", "setting": "[1]; EM-800 50 μg orally daily", "result": 18.8, "unit": "%"}, {"measurement": "Partial response, number", "setting": "[1]; EM-800 50 μg orally daily", "result": 3}, {"measurement": "Progression, (%)", "setting": "[1]; EM-800 50 μg orally daily", "result": 25.0, "unit": "%"}, {"measurement": "Progression, number", "setting": "[1]; EM-800 50 μg orally daily", "result": 4}, {"measurement": "Stable response, (%)", "setting": "[1]; EM-800 50 μg orally daily", "result": 31.2, "unit": "%"}, {"measurement": "Stable response, number", "setting": "[1]; EM-800 50 μg orally daily", "result": 5}, {"measurement": "inhibition of estrogen-stimulated ZR-75-1 tumor size", "setting": "[1]; EM-800 50 μg orally daily", "result": "93% and 93.5%"}, {"measurement": "average tumor weight", "setting": "[1]; EM-800 50 μg orally daily", "result": "0.03 ± 0.01", "unit": "g"}, {"measurement": "Complete response, (%)", "setting": "[1]; EM-800 100 μg orally daily", "result": 50.0, "unit": "%"}, {"measurement": "Complete response, number", "setting": "[1]; EM-800 100 μg orally daily", "result": 8}, {"measurement": "Partial response, (%)", "setting": "[1]; EM-800 100 μg orally daily", "result": "0 (0) %"}, {"measurement": "Partial response, number", "setting": "[1]; EM-800 100 μg orally daily", "result": "0 (0)"}, {"measurement": "Progression, (%)", "setting": "[1]; EM-800 100 μg orally daily", "result": 31.2, "unit": "%"}, {"measurement": "Progression, number", "setting": "[1]; EM-800 100 μg orally daily", "result": 5}, {"measurement": "Stable response, (%)", "setting": "[1]; EM-800 100 μg orally daily", "result": 18.8, "unit": "%"}, {"measurement": "Stable response, number", "setting": "[1]; EM-800 100 μg orally daily", "result": 3}, {"measurement": "inhibition of estrogen-stimulated ZR-75-1 tumor size", "setting": "[1]; EM-800 100 μg orally daily", "result": 94, "unit": "%"}, {"measurement": "average tumor weight", "setting": "[1]; EM-800 100 μg orally daily", "result": "0.04 ± 0.03", "unit": "g"}, {"measurement": "decrease of daily urinary calcium excretion versus control", "setting": "[2]", "result": "no statistically significant influence"}, {"measurement": "decrease of daily urinary phosphorus excretion versus control", "setting": "[2]", "result": "no statistically significant influence"}, {"measurement": "decrease of urinary hydroxyproline/creatinine ratio versus control", "setting": "[2]", "result": 48, "unit": "%"}, {"measurement": "increase of serum total alkaline phosphatase (tALP) activity versus control", "setting": "[2]", "result": "no statistically significant influence; also recorded: no effect"}]}]}
